Source: patent US6080573A, “Enzymatic oxidation process” (Lever Brothers Company, Division of Conopco, Inc., priority 1996, dated 2000)

Experiments:
[1] = tested on: peroxidase; test: Peroxidase bleach enhancement: bleaching of Reactive Black 5; assay type: biochemical, Hormographiella species; conditions: pH 9, 25° C.; for OD reading at 590 nm (Reactive Black 5): tyrosine 200 μM or peptide 100 μM
Procedure: (§1) Dye bleach experiments were performed using a partially purified peroxidase derived from an Hormographiella species. The enzyme was purified by ultrafiltration from the fermentation broth, followed by ion-exchange chromatography using Q-Sepharose (Pharmacia) at pH 7. Enzyme activity is expressed as ABTS (2,2'-azino-bis(3-ethylbenzothiazoline-6-sulphonic acid) units. One ABTS unit represents the amount of enzyme which oxidizes ABTS, resulting in an increase of 1 optical density at 418 nm. Conditions for the activity assay were 2 mM ABTS, 1 mM H2 O2, 20 mM Tris, pH 9.
(§2) Bleaching experiments were conducted at 25° C. in 20 mM Phosphate buffer, set at pH 9. Added peroxidase activity was 60 ABTS units per millilitre. The peptide GGSCGYHYQHCGQG (one letter amino acid code) was added as a peroxidase enhancer at a concentration of 100 μM. The Reactive Black 5 concentration was 30 μM, and the H2 O2 concentration was 250 μM.
(§3) Bleaching of Reactive Black 5 was monitored by the decrease in optical density at 590 nm. The enhancing activity of the peptide was compared to that of the free amino acid tyrosine. As the peptide contains 2 tyrosine residues, 200 μM of the amino acid was added, as a comparison to 100 μM of peptide.

[2] = Dye transfer prevention: washing a coloured swatch in the presence of a white pick-up swatch with peroxidase; set-up: key to ΔE (colour difference): CIELAB colour difference ΔE vs control swatch without peptide; key to ΔL (whiteness): difference in CIELAB L* (lightness) vs control swatch; conditions: for ΔE (colour difference) / ΔL (whiteness): pH 9, 30 minutes, 40° C., versus control swatch without peptide enhancer; for dye transfer prevention / effect on white swatch: result in words
Procedure: The potential of the enzymatic system to prevent dye transfer was assessed by washing a coloured swatch in the presence of a white pick-up swatch. The experiments were performed in 25 ml Phosphate buffer, pH 9, containing the two swatches of 5×5 cm. The experiments were performed using a partially purified peroxidase derived from an Hormographiella species. Experiments were performed in the presence of 12 ABTS units/ml. The fabrics were agitated in the wash solution (25 ml) for 30 minutes at 40° C. The fabrics were line dried and the reflectance spectra were measured using a Minolta spectrometer. The data thereby obtained was transferred to the CIELAB L*a*b* colour space parameters. In this colour space, L* indicates lightness and a* and b* are the chromaticity coordinates. The colour differences between the control swatch, without addition the peptide enhancer, and the swatches washed in the presence of different concentrations of peptide, were expressed as ΔE, calculated from the following equation: [formula]

[3] = tested on: peroxidase; test: Peroxidase bleach enhancement: bleaching of red beet solution; assay type: biochemical, Hormographiella species; conditions: conditions as in example 3
Procedure: as §1, §2, §3
In order to study the selectivity of the peptide enhanced reaction, the bleaching of a red beet solution with the system was assayed. The extract of red beet is, as with dyes, susceptible the action of peroxidase enhancers. […] Experimental conditions are as in example 3.

[4] = ELISA: binding of alkaline phosphatase-Reactive Red 6 conjugate (AP-RR6) to peptide-coated plates; conditions: plates coated with 1 mg/ml peptide, p-nitro-phenyl-phosphate, 30 minutes
Procedure: The specific binding of peptide #1 (NH2-GGSCGYHYQHCGQG-COOH) to the dye Reactive Red 6 was measured (the peptide contains one disuphide bridge through the cysteine residues, sequence of the peptides is given in one letter amino acid codes).
(§4) For the detection of binding, the enzyme Alkaline Phosphatase (AP, 2.5 mg/ml) was conjugated with the reactive dye Reactive Red 6 (RR6, 1.25 mM), by incubation of the enzyme with the dye during 2 hours, at room temperature in Borate buffer, 0.1 M, 0.15 M NaCl, pH 8.5. The dye thereby becomes covalently linked to the amino groups of the enzyme by its triazine unit. Free dye was separated from the enzyme conjugate by gel filtration (PD-10 column, Pharmacia). Elisa plates (Polysorb, Nunc) were coated overnight with 100 μl of a 1 mg/ml peptide solution in Phosphate buffer, 150 mM NaCl, pH 7.4 (PBS). The peptide coated ELISA plates were blocked with 2% Bovine Serum Albumin (BSA) in PBS for 1 hour, room temperature. The Alkaline Phosphatase--RR6 conjugate (AP-RR6) was then incubated for 1 hour, room temperature, in incubation buffer (0.2 M Tris, 20 mM NaCl, 1% PEG 6000, 5% BSA). The plates were washed plates 3 times with wash buffer (0.2 M Tris, 60 mM Citrate, 0.1 M NaCl, 0.05% Tween) and 3 times with demineralized water. Bound Alkaline Phosphatase (AP) was then detected by incubation with the substrate p-nitro-phenyl-phosphate. […] As a control, Alkaline Phosphatase, not conjugated to the dye, was used.

[5] = tested on: Alkaline Phosphatase; test: ELISA control: binding of unconjugated Alkaline Phosphatase (AP) to peptide-coated plates; conditions: control: Alkaline Phosphatase not conjugated to the dye; plates coated with 1 mg/ml peptide; 30 minutes
Procedure: as §4

Compound | OD reading at 590 nm (Reactive Black 5) ([1]; 0 minutes after incubation) | OD reading at 590 nm (Reactive Black 5) ([1]; 2 minutes after incubation) | OD reading at 590 nm (Reactive Black 5) ([1]; 4 minutes after incubation) | OD reading at 590 nm (Reactive Black 5) ([1]; 6 minutes after incubation) | OD reading at 590 nm (Reactive Black 5) ([1]; 8 minutes after incubation) | OD reading at 590 nm (Reactive Black 5) ([1]; 10 minutes after incubation) | OD reading at 590 nm (Reactive Black 5) ([1]; 12 minutes after incubation) | OD reading at 590 nm (Reactive Black 5) ([1]; 14 minutes after incubation) | ΔE (colour difference) ([2]; 25 μM) | ΔL (whiteness) ([2]; 25 μM) | ΔE (colour difference) ([2]; 50 μM) | ΔL (whiteness) ([2]; 50 μM) | ΔE (colour difference) ([2]; 100 μM) | ΔL (whiteness) ([2]; 100 μM) | dye transfer prevention / effect on white swatch [2] | bleaching of red beet solution (optical density) ([3]; 0 minutes after incubation) | bleaching of red beet solution (optical density) ([3]; 2 minutes after incubation) | bleaching of red beet solution (optical density) ([3]; 4 minutes after incubation) | OD 450 nm values, AP-RR6 [4] | OD 450 nm values, AP [5] | further results
N[C@@H](Cc1ccc(O)cc1)C(=O)O [tyrosine] | 0.651 | 0.606 | 0.580 | 0.559 | 0.540 | 0.523 | 0.507 | 0.494 | 0.55 | -0.5 | 0.63 | -0.6 | 2.05 | -2.0 | darkening of the white swatch (negative ΔL) | 1.082 | 1.076 | 1.06 | – | – | bleaching of red beet solution (optical density) ([3]; 6 minutes after incubation): 1.022; bleaching of red beet solution (optical density) ([3]; 8 minutes after incubation): 0.906; bleaching of red beet solution (optical density) ([3]; 10 minutes after incubation): 0.739; bleaching of red beet solution (optical density) ([3]; 12 minutes after incubation): 0.591; bleaching of red beet solution (optical density) ([3]; 14 minutes after incubation): 0.488
Arg-Arg [Arg--Arg] | – | – | – | – | – | – | – | – | – | – | – | – | – | – | – | – | – | – | 0.09 | 0.003 | –
Lys-Lys-Lys [Lys--Lys--Lys] | – | – | – | – | – | – | – | – | – | – | – | – | – | – | – | – | – | – | 0.31 | 0.023 | –
NH2-GGSCGYHYQHCGQG-COOH (H-GGSCGYHYQHCGQG-OH; cysteine pairing not given here) [Peptide #1] | 0.651 | 0.430 | 0.344 | 0.294 | 0.263 | 0.241 | 0.227 | 0.216 | 2.46 | 2.40 | 2.85 | 2.80 | 3.62 | 3.50 | clear dye transfer prevention benefit, resulting in a lighter white swatch | 1.091 | 1.083 | 1.063 | 2.36 | 0.047 | bleaching activity of the peroxidase in the presence of the peptide ([1]; result in words): enhanced bleaching activity; bleaching of red beet solution (optical density) ([3]; 6 minutes after incubation): 1.016; bleaching of red beet solution (optical density) ([3]; 8 minutes after incubation): 0.881; bleaching of red beet solution (optical density) ([3]; 10 minutes after incubation): 0.709; bleaching of red beet solution (optical density) ([3]; 12 minutes after incubation): 0.567; bleaching of red beet solution (optical density) ([3]; 14 minutes after incubation): 0.477; reaction enhancement over tyrosine, red beet solution ([3]; result in words): there is not reaction enhancement of the peptide over tyrosine
Val-Gly-Ser-Glu (VGSE; printed: Val-Gly-Ser-Glu) [V--G--S--E] | – | – | – | – | – | – | – | – | – | – | – | – | – | – | – | – | – | – | 0.03 | 0.003 | –
